Where two headings read alike, the source gives them in different places.
Columns and labels:
[1] = system: phosphorylation of AKT on Ser473 as a readout of the PI3K pathway in SKBR3 (PIK3CA WT) cells; assay: PI3K pathway activation assay, pAKT Ser473 HTRF, SKBR3 cells; format: cell-based; details: two hours of treatment
Description: The inhibitory activity of compounds was evaluated by measuring phosphorylation of AKT on Ser473 as a readout of the PI3K pathway using HTRF (CisBio catalog number: 64AKSPE). These studies were conducted in the T-47D (heterozygous PIK3CA H1047R) and SKBR3 (PIK3CA WT) cell lines. Cells were maintained in a 37° C. incubator at 5% CO2 in the following media: T-47D: RPMI 1640, ATCC© Modification (Gibco, A10491-01) supplemented with 10% v/v FBS (Gibco, 26140-079), 1% penicillin streptomycin (Gibco, 15140-122), and 7.4 ug/mL insulin (MilliporeSigma, I9278); SKBR3: McCoy's 5a (Modified) Medium (Gibco, 16600-082) supplemented with 10% v/v FBS (Gibco, 26140-079). Cells were seeded in 384-well plates at a density of 4,000 cells/well. Compounds dissolved in DMSO were added using a digital dispense (D300E, Tecan) 10-point serial dilution. After two hours of treatment, cells were lysed for thirty minutes and then incubated with detection reagents per HTRF kit material and manufacturer's instructions. Fluorescence signal was measured with a multimode plate reader (Envision 2105, Perkin Elmer). Fluorescent signal was normalized to background and DMSO controls to obtain percent inhibition/activity for each compound.

[2] = system: phosphorylation of AKT on Ser473 as a readout of the PI3K pathway in T-47D (heterozygous PIK3CA H1047R) cells; assay: PI3K pathway activation assay, pAKT Ser473 HTRF, T-47D cells; format: cell-based; details: two hours of treatment
How it was run: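 pAKT Ser473 measured by HTRF in SKBR3 (PIK3CA WT) and T-47D (PIK3CA H1047R) cells, 4,000/well. Signal normalised to background and DMSO controls as percent inhibition.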

| IC50 ([1]; Homo sapiens, SK-BR-3, 2 h) [µM] | IC50 ([2]; Homo sapiens, T47D, 2 h) [µM] | IC50 [1] [µM] | IC50 ([2]; read-out: T47D pAKT IC50) [µM] | Compound |
| --- | --- | --- | --- | --- |
| > 10 | < 0.5 | – | – | Cc1cc(C(C)Nc2ccccc2C(=O)O)c2nc(N3CC4CC4C3)n(C)c(=O)c2c1 (single isomer, unassigned) [Example 24, 2-((1-(2-(3-azabicyclo[3.1.0]hexan-3-yl)-3,6-dimethyl-4-oxo-3,4-dihydro-quinazolin-8-yl)ethyl)amino)benzoic acid] |
| > 10 | < 0.5 | – | – | CC(Nc1ccccc1C(=O)O)c1cc(Br)cc2c(=O)n(C)c(N3Cc4ccccc4C3)nc12 (stereo not drawn) [Example 70, 2-((1-(6-Bromo-2-(isoindolin-2-yl)-3-methyl-4-oxo-3,4-dihydroquinazolin-8-yl)ethyl)amino)benzoic acid] |
| > 10 | 0.5 to 10 | – | – | COc1nc2c(C(C)Nc3ccccc3C(=O)O)cc(C)cc2c(=O)n1C (stereo not drawn) [Example 41, 2-[1-(2-methoxy-3,6-dimethyl-4-oxoquinazolin-8-yl)ethylamino]benzoic acid] |
| > 10 | < 0.5 | – | – | Cc1cc(C(C)Nc2ccccc2C(=O)O)c2nc(N3Cc4ccccc4C3)[nH]c(=O)c2c1 (stereo not drawn) [Example 22, 2-((1-(2-(isoindolin-2-yl)-6-methyl-4-oxo-3,4-dihydroquinazolin-8-yl)ethyl)amino)benzoic acid] |
| > 10 | < 0.5 | – | – | Cc1cc(C(C)Nc2ccccc2C(=O)O)c2nc(N3Cc4cccnc4C3)n(C)c(=O)c2c1 (single isomer, unassigned) [Example 67, 2-((1-(2-(5,7-Dihydro-6H-pyrrolo[3,4-b]pyridin-6-yl)-3,6-dimethyl-4-oxo-3,4-dihydroquinazolin-8-yl)ethyl)amino)benzoic acid] |
| > 10 | < 0.5 | – | – | Cc1cc(C(C)Nc2ccccc2C(=O)O)c2nc(N3Cc4ccc(F)cc4C3)n(C)c(=O)c2c1 (stereo not drawn) [Example 2, 2-((1-(2-(5-fluoroisoindolin-2-yl)-3,6-dimethyl-4-oxo-3,4-dihydroquinazolin-8-yl)ethyl)amino)benzoic acid] |
| – | – | > 10 | < 0.5 | Cc1cc(C(C)Nc2ccccc2C(=O)O)c2nc(N3CC4CCC3C4)n(C)c(=O)c2c1 (single isomer, unassigned) [Example 100, 2-((1-(2-(2-Azabicyclo[2.2.1]heptan-2-yl)-3,6-dimethyl-4-oxo-3,4-dihydro-quinazolin-8-yl)ethyl)amino)benzoic acid] |
| > 10 | < 0.5 | – | – | [2H]C([2H])([2H])c1cc(C(C)Nc2ccccc2C(=O)O)c2nc(N3CC4CC4C3)n(C)c(=O)c2c1 (single isomer, unassigned) [Example 68] |
| > 10 | < 0.5 | – | – | COC(=O)NC1[C@H]2CN(c3nc4c(C(C)Nc5ccccc5C(=O)O)cc(C)cc4c(=O)n3C)C[C@@H]12 (stereo partly drawn) [Example 58, 2-((1-(2-((1R,5S,6s)-6-((methoxycarbonyl)amino)-3-azabicyclo[3.1.0]hexan-3-yl)-3,6-dimethyl-4-oxo-3,4-dihydroquinazolin-8-yl)ethyl)amino)benzoic acid] |
| > 10 | 0.5 to 10 | – | – | CC(=O)N1CCN(c2nc3c(C(C)Nc4ccccc4C(=O)O)cc(C)cc3c(=O)n2C)CC1 (stereo not drawn) [Example 46, 2-((1-(2-(4-acetylpiperazin-1-yl)-3,6-dimethyl-4-oxo-3,4-dihydroquinazolin-8-yl)ethyl)amino)benzoic acid] |
| > 10 | 0.5 to 10 | – | – | Cc1cc(C(C)Nc2ccc(C)nc2C(=O)O)c2nc(N3CC4CC4C3)n(C)c(=O)c2c1 (stereo not drawn) [Example 120, 3-[1-[2-(3-Azabicyclo[3.1.0]hexan-3-yl)-3,6-dimethyl-4-oxoquinazolin-8-yl]ethylamino]-6-methylpyridine-2-carboxylic acid] |
| > 10 | < 0.5 | – | – | Cc1cc(C(C)Nc2ccccc2C(=O)O)c2nc(N3CC4CCC3C4)n(C)c(=O)c2c1 (single isomer, unassigned) [Example 99, 2-((1-(2-(2-Azabicyclo[2.2.1]heptan-2-yl)-3,6-dimethyl-4-oxo-3,4-dihydro-quinazolin-8-yl)ethyl)amino)benzoic acid] |
| > 10 | < 0.5 | – | – | [2H]C([2H])([2H])n1c(N2CC3CC3C2)nc2c(C(C)Nc3ccccc3C(=O)O)cc(C)cc2c1=O (single isomer, unassigned) [Example 104, 2-((1-(2-(3-Azabicyclo[3.1.0]hexan-3-yl)-6-methyl-3-(methyl-d3)-4-oxo-3,4-dihydroquinazolin-8-yl)ethyl)amino)benzoic acid] |

| Compound | IC50 ([1]; Homo sapiens, SK-BR-3, 2 h) [µM] | IC50 ([2]; Homo sapiens, T47D, 2 h) [µM] | IC50 [1] [µM] | IC50 ([2]; read-out: T47D pAKT IC50) [µM] |
| --- | --- | --- | --- | --- |
| Cc1cc(C(C)Nc2ccc(C#N)cc2C(=O)O)c2nc(N3Cc4ccccc4C3)n(C)c(=O)c2c1 (stereo not drawn) [Example 31, 5-cyano-2-((1-(2-(isoindolin-2-yl)-3,6-dimethyl-4-oxo-3,4-dihydroquinazolin-8-yl)ethyl)amino)benzoic acid] | > 10 | < 0.5 | – | – |
| Cc1cc(C(C)Nc2ccc(F)c(F)c2C(=O)O)c2nc(N3Cc4ccccc4C3)n(C)c(=O)c2c1 (stereo not drawn) [Example 35, 2,3-difluoro-6-((1-(2-(isoindolin-2-yl)-3,6-dimethyl-4-oxo-3,4-dihydroquinazolin-8-yl)ethyl)amino)benzoic acid] | > 10 | < 0.5 | – | – |
